We go through three molecules from publication PMC13172357 (Nature Communications, 2026).

In one assay the target is HiBiT-USP7 (Homo sapiens, UniProt Q93009). Kind of assay: HiBiT USP7 degradation assay, MV4-11 cells. In kind it is cell-based. To be noted: for DC50: MV4-11 HiBiT-USP7, 24 h. As for the experimental part: HiBiT-USP7 construct was cloned by extraction of USP7 fragment from plasmid pQHA-USP7 WT puroR (Addgene #46753) using appropriate restriction sites. The USP7 fragment was then ligated into the pRRL-PGK-HiBiT entry vector to generate the plasmid.
Sequence of HiBiT-USP7 (Q93009 whole entry, the tested form may be a part): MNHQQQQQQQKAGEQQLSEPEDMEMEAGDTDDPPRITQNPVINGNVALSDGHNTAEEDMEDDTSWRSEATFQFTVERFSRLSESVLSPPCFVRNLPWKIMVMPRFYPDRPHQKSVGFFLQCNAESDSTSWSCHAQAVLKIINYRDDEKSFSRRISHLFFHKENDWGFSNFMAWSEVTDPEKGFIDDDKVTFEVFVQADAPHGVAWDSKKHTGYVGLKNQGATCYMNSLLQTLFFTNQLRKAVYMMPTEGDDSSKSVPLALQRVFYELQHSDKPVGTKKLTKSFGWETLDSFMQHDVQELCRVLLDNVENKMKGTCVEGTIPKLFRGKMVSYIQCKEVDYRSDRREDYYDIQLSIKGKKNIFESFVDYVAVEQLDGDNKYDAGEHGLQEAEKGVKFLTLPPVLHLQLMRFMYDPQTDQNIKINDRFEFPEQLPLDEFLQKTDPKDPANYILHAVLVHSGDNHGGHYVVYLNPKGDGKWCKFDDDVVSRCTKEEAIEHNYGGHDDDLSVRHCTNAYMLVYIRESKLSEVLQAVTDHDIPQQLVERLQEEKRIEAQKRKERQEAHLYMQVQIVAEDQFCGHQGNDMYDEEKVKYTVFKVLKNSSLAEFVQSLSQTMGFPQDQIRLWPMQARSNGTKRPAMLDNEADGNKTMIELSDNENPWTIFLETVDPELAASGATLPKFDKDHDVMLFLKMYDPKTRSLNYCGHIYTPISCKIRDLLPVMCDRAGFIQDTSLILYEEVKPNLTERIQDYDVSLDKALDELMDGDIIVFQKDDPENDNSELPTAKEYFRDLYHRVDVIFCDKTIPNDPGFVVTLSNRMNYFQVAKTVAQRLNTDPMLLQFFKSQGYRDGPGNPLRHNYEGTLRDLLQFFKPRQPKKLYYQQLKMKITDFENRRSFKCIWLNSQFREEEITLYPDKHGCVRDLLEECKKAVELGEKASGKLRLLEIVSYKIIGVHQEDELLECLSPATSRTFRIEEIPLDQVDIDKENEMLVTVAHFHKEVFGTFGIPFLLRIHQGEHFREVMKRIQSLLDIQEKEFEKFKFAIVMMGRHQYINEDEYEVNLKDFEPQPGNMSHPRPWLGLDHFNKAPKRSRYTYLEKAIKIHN
Lentiviral infection was used to generate stable a MV4-11 HiBiT cell line. Lentivirus was produced using plasmids psPAX2, pMD2.G, and HiBiT-USP7 plasmid in HEK293 cells. MV4-11 cells were infected with filtered virus supernatant and selected after 48 h of infection for the generation of the stable MV4-11^HiBiT-USP7 cell line.
The assay was performed as described previously. Briefly, MV4-11^HiBiT-USP7 cells were seeded and treated with compounds for the indicated time. Nano-Glo HiBiT Lytic Detection System (Promega) was used for the assay and luminescence was measured on a Tecan Spark microplate reader (Tecan). DC50 values were calculated using the sigmoidal dose-response (four parameters) equation in GraphPad Prism and are given as the concentration where 50% of the total signal was remaining. Dmax values are given as the maximum degradation observed at any concentration.
Background: With HiBiT, luminescence reflects the tagged protein that the partner subunit can reach.

The next assay deals with Ma-Mel-47 cells. Kind of assay: Total proteome analysis, DIA mass spectrometry, Ma-Mel-47 cells. In kind it is cell-based, H. sapiens. To be noted: DIA Ma-Mel-47, 1 µM. The method, then:
(§1) Following treatment, cells were harvested, washed twice with PBS, and pellets were flash frozen in liquid nitrogen before being stored at −80 °C. Samples were prepared using the single-pot, solid-phase-enhanced sample-preparation (SP3) strategy. All buffers and solutions were prepared with mass spectrometry (MS)-grade water (Honeywell). Cell pellets were taken up in 100 µL 1x sample buffer (50 mM Hepes pH 8.0, 1% (wt/v) SDS, 1% (v/v) NP-40, 10 mM TCEP, 40 mM chloroacetamide) and samples were heated at 90 °C for 5 min prior to sonication with a Bioruptor UCD-300 (Diagenode) for ten cycles of 1 min pulse and 30 s pause at high power. The samples were then supplemented with Benzonase (20 U/sample) and sonified for 5 min in a water bath (Bandelin) followed by 30 min incubation at […].
(§2) The protein extracts were then centrifuged (20000 ×g, RT, 40 min) and the protein concentration of the cleared lysates was determined using the Pierce 660 nm Protein Assay Reagent (#22660; Thermo Scientific) with the Ionic Detergent Compatibility Reagent (#22663; Thermo Scientific) according to the manufacturers’ instructions. Next, 15 µg of total protein per sample in a volume of 100 µL sample buffer was transferred to a 500 µL 96-well plate and treated with 7 U of benzonase (#71206; Merck Millipore) in dilution buffer (20 mM Hepes pH 8.0, 2 mM MgCl2) at 37 °C for 30 min with agitation at 1500 rpm. After Benzonase treatment samples were heated to 90 °C for 5 min and after cooling down to room temperature, iodoacetamide to a final concentration of 10 mM was added for complete alkylation of cysteines (37 °C, 15 min, 1000 rpm, in the dark).
(§3) Then, 3 µL of a 50 µg/µL 1:1 mixture of hydrophilic (#45152105050250) and hydrophobic (#65152105050250) carboxylate modified Sera-Mag SpeedBeads (Cytiva), that were washed twice with MS-grade water, were added to the samples. The next steps were carried out at room temperature unless noted otherwise. Afterwards, the samples were mixed shortly (1 min, 1000 rpm) and collected by short centrifugation (10 s, 200 ×g). […]

Assay [1] concerns Panc89 cells. Kind of assay: Total proteome analysis, DIA mass spectrometry, Panc89 cells. The settings on record: DIA Panc89, 1 µM. Format: cell-based, H. sapiens. The method, then:
as §1
as §2, with “After Benzonase treatment samples were heated to 90 °C for 5 min and after cooling down to room temperature, iodoacetamide to a final concentration of 10 mM was added for complete alkylation of cysteines (37 °C, 15 min, 1000 rpm, in the dark).” left out

For the next assay, the target named is T1, USP7 (Homo sapiens, UniProt Q93009).
T1 construct: allowed the analysis of endogenous USP7 degradation in both cell lines; endogenous in cells; host or cells: Panc89 (PDAC) and Ma-Mel-47 (melanoma) cells
T1 sequence (Q93009 whole entry): as the sequence (Q93009 whole entry, the tested form may be a part) above
In words: Immunofluorescence staining of USP7, Panc89 cells. The settings on record: Panc89, 1 µM, 24 h. In kind it is cell-based. The method, then:
Panc89 cells were seeded on 96-well plates (89626, Ibidi) and treated with either DMSO or compound for the indicated time and concentration. Cells were then fixed with 4% PFA in PBS for 20 min, permeabilized with 0.1% Triton X-100 in PBS for 10 min and incubated in blocking buffer containing 2% BSA in PBS for 1 h. Three 10 min washes with PBS were performed between different steps. Cells were treated with primary antibody anti-USP7 (ab190183, Abcam, rabbit, 1:500) in blocking solution for 1 h at RT. […] Finally, cells were stained with DAPI (Invitrogen, 1 µg/mL) in PBS for 10 min and mounted with aqueous mounting medium (50001, Ibidi) for microscopy. Plates were imaged on a fully automated inverted EVOS M7000 microscope system (Invitrogen) with X-Apo 20x air objective (0.8 NA, Olympus, AMEP4906) using DAPI (AMEP4950), GFP (AMEP4951), RFP (AMEP4952), and Cy5 (AMEP4956) LED light cubes. Images were captured using a high-sensitivity 3.2 MP monochrome CMOS camera and were processed with Omero (v. web 5.28.0).

Assay [2] relates to Panc89 cells. In words: Total proteome analysis, DDA mass spectrometry, Panc89 cells. To be noted: DDA Panc89, 1 µM. Format: cell-based, H. sapiens. The method, then:
as §1, §2, §3

In assay [3] the test system is Panc89 cells. Kind of assay: Confluence measurement (cell growth), Panc89. In kind it is cell-based, human. The settings on record: Panc89, 1-10 µM, 72 h, 25 mM or 5 mM D-glucose.
Where [4] appears, read: MV4-11, MV4-11 HiBiT-USP7, 24 h.

As to `Cc1ncsc1-c1ccc([C@H](C)NC(=O)[C@@H]2C[C@@H](O)CN2C(=O)[C@@H](NC(=O)C23C4C5C2C2C3C4C52C(=O)N2CCC(C3CCN(c4ccc(-n5ncc6c(=O)n(CC7(O)CCN(C(=O)C[C@@H](C)c8ccccc8)CC7)cnc65)cc4)CC3)CC2)C(C)(C)C)cc1` (stereo partly shown) [NK266], the Dmax – broadly, the largest share of the target that was removed – at HiBiT-USP7 (MV4-11, MV4-11 HiBiT-USP7, 6 h) was 74%; at HiBiT-USP7 (setting [4]), 90 to 92%. Besides, half-maximal degradation at HiBiT-USP7 (DC50) was put at 24 nM. Further, the “USP7 protein level change (in words)” value in the assay with Ma-Mel-47 cells (6 h) was “only minimal reduction”; with Ma-Mel-47 cells (24 h), “the most decreased protein”.

As to `Cc1ncsc1-c1ccc(CNC(=O)[C@@H]2C[C@H](O)CN2C(=O)[C@@H](NC(=O)[C@H]2CC[C@H](C(=O)N3CCN(c4ccc(-n5ncc6c(=O)n(CC7(O)CCN(C(=O)C[C@@H](C)c8ccccc8)CC7)cnc65)cc4)CC3)CC2)C(C)(C)C)cc1` [NK245], the “HiBiT-USP7 levels (in words)” value at HiBiT-USP7 (MV4-11 HiBiT-USP7, 6 h and 24 h) is reported as “partial reduction of USP7 levels”. Besides, the “Changes to the proteome (in words)” value with Panc89 cells [1] (72 h) and in the assay with Ma-Mel-47 cells (72 h) was “only showed minimal changes to the proteome” throughout.

For `Cc1ncsc1-c1ccc([C@H](C)NC(=O)[C@@H]2C[C@@H](O)CN2C(=O)[C@@H](NC(=O)[C@H]2CC[C@H](C(=O)N3CCN(c4ccc(-n5ncc6c(=O)n(CC7(O)CCN(C(=O)C[C@@H](C)c8ccccc8)CC7)cnc65)cc4)CC3)CC2)C(C)(C)C)cc1` [NK250], the “USP7 immunofluorescence signal (in words)” value at USP7 is given as “strongly reduced”. Also, the Dmax was 87% on HiBiT-USP7 (MV4-11, MV4-11 HiBiT-USP7, 6 h) and 90 to 92% at HiBiT-USP7 (setting [4]). At HiBiT-USP7, the DC50 – broadly, the concentration at which degradation of the target reaches its halfway point – amounted to 4 nM. The “Proteins significantly decreased (in words)” value in the assay on Panc89 cells [1] (6 h) was “USP7 was the only protein that was significantly decreased”; with Panc89 cells [2] (6 h) it was “USP7 was the only protein significantly decreased”. Besides, the “Reduction of USP7 protein levels” value with Panc89 cells [2] (after three days) was “more than 100 fold”. In addition, the “Cell growth (in words)” value in the assay on Panc89 cells [3] is “not affected”.
